From ChEMBL document CHEMBL1127709, “The rational development of small molecule tachykinin NK3 receptor selective antagonists - the utilisation of a dipeptide chemical library in drug design” (Bioorg Med Chem Lett, 1994) come the findings set out here.

The structures appear in SMILES notation. pIC50: −log10 of the molar value.

In assay [1] the target is Substance-P receptor (Homo sapiens, UniProt P25103). In words: Binding affinity for NK1 receptor binding sites in human lymphoma IM9 cells by using [125I]-Bolton-Hunter substance P as radioligand. Type of assay: cell-based, IM-9.
Sequence of Substance-P receptor (P25103 whole entry): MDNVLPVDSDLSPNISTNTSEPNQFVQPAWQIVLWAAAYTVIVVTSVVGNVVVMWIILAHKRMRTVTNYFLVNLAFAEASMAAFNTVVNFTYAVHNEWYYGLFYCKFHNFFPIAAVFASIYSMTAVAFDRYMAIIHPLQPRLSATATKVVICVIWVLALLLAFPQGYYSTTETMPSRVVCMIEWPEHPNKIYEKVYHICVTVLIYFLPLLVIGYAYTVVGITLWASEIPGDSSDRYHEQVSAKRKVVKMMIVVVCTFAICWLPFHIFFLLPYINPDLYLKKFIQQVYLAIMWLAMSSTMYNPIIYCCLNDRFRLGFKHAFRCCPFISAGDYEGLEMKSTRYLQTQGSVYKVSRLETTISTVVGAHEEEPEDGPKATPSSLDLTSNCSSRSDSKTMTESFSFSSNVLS
In assay [2] the target is T1, Neuromedin-K receptor (Homo sapiens, UniProt P29371).
T1 sequence (P29371 whole entry): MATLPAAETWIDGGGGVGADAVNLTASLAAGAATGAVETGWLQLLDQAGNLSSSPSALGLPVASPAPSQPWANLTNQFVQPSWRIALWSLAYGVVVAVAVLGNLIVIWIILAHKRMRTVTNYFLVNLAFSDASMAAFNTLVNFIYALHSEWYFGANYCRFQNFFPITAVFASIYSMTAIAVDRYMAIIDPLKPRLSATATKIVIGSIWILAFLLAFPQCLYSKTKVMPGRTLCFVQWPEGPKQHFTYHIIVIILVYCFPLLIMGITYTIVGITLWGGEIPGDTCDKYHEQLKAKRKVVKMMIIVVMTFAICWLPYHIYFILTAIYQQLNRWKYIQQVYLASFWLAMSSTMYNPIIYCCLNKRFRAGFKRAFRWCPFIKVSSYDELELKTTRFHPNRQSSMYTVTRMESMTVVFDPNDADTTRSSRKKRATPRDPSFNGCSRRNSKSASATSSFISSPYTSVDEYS
In words: Displacement of [125I][MePhe]-NKB from human NK3 receptor expressed in CHO cells. Type of assay: cell-based. In general terms: Loss of bound radioactivity is the signal in a displacement assay; it reports binding, not function.

Assay [3] concerns the target T2, Neuromedin-K receptor (Cavia porcellus, UniProt P30098).
T2 sequence (P30098 whole entry): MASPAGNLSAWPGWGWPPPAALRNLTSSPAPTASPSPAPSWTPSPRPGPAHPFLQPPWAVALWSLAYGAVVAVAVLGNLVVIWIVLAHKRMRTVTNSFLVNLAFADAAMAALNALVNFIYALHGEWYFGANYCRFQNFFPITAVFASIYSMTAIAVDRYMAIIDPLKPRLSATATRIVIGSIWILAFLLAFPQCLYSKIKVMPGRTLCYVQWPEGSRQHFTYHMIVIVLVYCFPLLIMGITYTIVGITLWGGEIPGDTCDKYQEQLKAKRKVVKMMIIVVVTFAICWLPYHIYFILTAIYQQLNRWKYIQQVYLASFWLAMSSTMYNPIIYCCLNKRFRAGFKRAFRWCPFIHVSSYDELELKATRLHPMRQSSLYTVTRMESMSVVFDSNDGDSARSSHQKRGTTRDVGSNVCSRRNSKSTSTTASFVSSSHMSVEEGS
The assay can be described thus: Binding affinity for NK3 receptor binding sites in guinea pig cortical membranes by using [125I][MePhe7]-NKB as radioligand. Type of assay: cell membranes.

Assay [4] concerns the target T3, Substance-K receptor (Mesocricetus auratus, UniProt P51144).
T3 sequence (P51144 whole entry): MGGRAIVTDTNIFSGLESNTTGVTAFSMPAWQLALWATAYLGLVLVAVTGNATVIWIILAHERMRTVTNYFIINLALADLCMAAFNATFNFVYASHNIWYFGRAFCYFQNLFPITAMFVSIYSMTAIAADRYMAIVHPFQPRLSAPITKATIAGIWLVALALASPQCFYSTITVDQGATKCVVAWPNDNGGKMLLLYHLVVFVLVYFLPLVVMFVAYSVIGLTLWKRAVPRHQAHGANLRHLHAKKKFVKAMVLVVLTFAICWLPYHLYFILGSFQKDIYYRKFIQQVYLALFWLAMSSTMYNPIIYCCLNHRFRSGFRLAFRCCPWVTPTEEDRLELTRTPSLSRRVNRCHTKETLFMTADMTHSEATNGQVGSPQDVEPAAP
In words: Binding affinity for NK2 receptor binding sites in membranes prepared from hamster urinary bladder by using [125I]NKA as radioligand.

The species named for assay [5] is Cavia porcellus. In words: In vitro inhibition of Isometric contractions from longitudinal muscle myenteric plexus preparations with responses to the NK3 receptor selective agonist senktide. Type of assay: functional.
Assay [6] is filed under the species Cavia porcellus. In words: In vitro inhibition of senktide-induced increases in spontaneous firing of guinea pig habenula neurones. Type of assay: functional.
For assay [7], the system named is CHO. The assay can be described thus: In vitro inhibition of senktide-evoked increases in intracellular calcium levels in CHO cells using the fluorescent indicator Fura2. Type of assay: functional, Cricetulus griseus. On the technique in general: Calcium flux is commonly read through the fluorescence of an indicator in the cells.

A word on the pIC50: it is −log10 of the IC50, conventionally taken in molar units. Lower therefore signals a high IC50. Regarding `CC(C)(C)OC(=O)N[C@@](C)(Cc1ccccc1)C(=O)N[C@H](Cc1ccccc1)C(=O)NCCCCCCCCO`, the pIC50 in assay [1] is 5.00.
In turn, `COCCCCCCCCNC(=O)C(Cc1ccccc1)NC(=O)[C@](C)(Cc1ccccc1)NC(=O)OC(C)(C)C` (some centres undefined) showed a negative-log IC50 (pIC50) in assay [2] of 6.99.
Take `CC(C)(C)OC(=O)N[C@@](C)(Cc1ccccc1)C(=O)N[C@H](Cc1ccccc1)C(=O)NCCCCCCCCC(N)=O`: the pIC50 is 5.00 in assay [1], 7.82 in assay [3] and 5.30 in assay [4]. Moreover, the results for the Ke in assay [5], in assay [6] and in assay [7] were 13 nM, 25 nM and 15 nM, respectively.
On to `CC(C)(C)OC(=O)N[C@@H](Cc1ccccc1)C(=O)N[C@](C)(Cc1ccccc1)C(=O)NCCCCCCCNC(N)=O`, for which, in assay [7], the Ke is 7 nM.
